Reference: PMC10386196, “A First-Class Degrader Candidate Targeting Both KRAS G12D and G12V Mediated by CANDDY Technology Independent of Ubiquitination” (Molecules, 2023)
Square brackets hold non-standard residues; d marks the D form. Peptide text beside a SMILES is read from it. Nle = CCCC[C@H](N)C(=O)O

Legend:
KRAS G12D [1] = biological target: KRAS G12D; parameters: method as in PMID 22566140; conditions: cited from earlier work
[2] = Solubility (statement in words); type: physicochemical; conditions: reason not used as in vivo control
KRAS G12D [3] = biological target: T1, KRAS G12D (Homo sapiens, UniProt P01116, G12D); experiment: KRAS degradation in a cell-free system with 26S proteasome; type: biochemical; conditions: only 26S proteasome and target protein, 3 h at 37 °C
Experimental: KRAS G12D (final concentration: 5 ng/µL) and 26S proteasome (final concentration: 8 nM) were incubated with TUS-007 (10, 20, 40 µM), RAS-SOS inhibitor (40 µM), RAS-SOS-NH2 (40 µM), or DMSO in 20 mM Tris-HCl buffer (pH 7.5) containing 20% glycerol for 3 h at 37 °C. To assess the effect of MLN on chemical knockdown, KRAS G12D and 26S proteasome were incubated with DMSO or TUS-007 40 µM in the presence or absence of MLN (1 µM) in the same condition. After centrifugation at 14,000× g for 10 min, the supernatants were analyzed via SDS-PAGE, followed by immunoblotting using an anti-KRAS antibody (1:1000, WH0003845MI, Sigma-Aldrich).

proteasome β2 = proteasome β2 (Homo sapiens, UniProt Q99436); experiment: Inhibition of proteasome β2 (trypsin-like) activity, Bz-VGR-AMC substrate; type: biochemical; conditions: SE in parentheses, n = 2
Experimental: (§1) Reaction time (min) Reaction time (min)
(§2) Figure S1. Proteasome Inhibitors Modified as Degradation Tags, Related to Figures 2
(§3) (A) Chymotrypsin-like (β5) , trypsin-like (β2) and caspase-like (β1) activities of the pr oteasome were monitor ed by Suc- LLVY-
(§4) AMC (β5 substrate) , Bz- VGR-AMC (β2 substr ate) and Z -LLE-AMC (β1 substrate), respectively. AMC fluorescence was
(§5) m onitor ed by a plate reader with excitation and emission filter s of 360 nm and 460 nm, respectively (DMSO, 30 min = 1) […]

proteasome β1 = proteasome β1 (Homo sapiens, UniProt P28072); experiment: Inhibition of proteasome β1 (caspase-like) activity, Z-LLE-AMC substrate; type: biochemical; conditions: SE in parentheses, n = 2
Experimental: as §1, §2, §3, §4, §5

proteasome β5 = proteasome β5 (Homo sapiens, UniProt P28074); experiment: Inhibition of proteasome β5 (chymotrypsin-like) activity, Suc-LLVY-AMC substrate; type: biochemical; conditions: SE in parentheses, n = 2
Experimental: as §1, §2, §3, §4, §5

ecDHFR [4] = biological target: T2, ecDHFR (Escherichia coli, UniProt P0ABQ4); experiment: Cellular thermal shift assay (CETSA) for ecDHFR in HeLa cells; type: binding; conditions: ecDHFR-HA-GFP-expressing HeLa cells, 3 h treatment
T2 construct: expressed in transfected cells; host or cells: HeLa cells (bicistronic construct co-expressing DsRed)
T2 sequence (P0ABQ4 whole entry): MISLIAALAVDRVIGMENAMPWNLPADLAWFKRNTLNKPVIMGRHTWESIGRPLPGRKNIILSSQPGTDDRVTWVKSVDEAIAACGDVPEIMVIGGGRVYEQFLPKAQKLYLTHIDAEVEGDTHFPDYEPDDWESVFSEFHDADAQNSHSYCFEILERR
Experimental: Figure 2 Proof of principle for the CANDDY Strategy. (A) Structures of degraders 1–3 constructed with TMP and each degradation tag (CANDDY_MLN, CANDDY_ALLN, or CANDDY_BTZ). (B) Comparison of proteasomal inhibitory activity of b2 by 1–3 and each proteasome inhibitor. […] Cell extraction was treated with heat for 3 min and then analyzed via immunoblotting. (D) Degradation rates of ecDHFR by 1–3. The same procedure as in (E) was performed except for 24 h. (E) ecDHFR degradation by 1 for 24 h. The ratio of ecDHFR-HA-GFP/DsRed was detected via flow cytometry.

ecDHFR [5] = biological target: T2, ecDHFR; type: cell-based
Experimental: Cell extraction was treated with heat for 3 min and then analyzed via immunoblotting. […] The same procedure as in (E) was performed except for 24 h. […] The ratio of ecDHFR-HA-GFP/DsRed was detected via flow cytometry.
HeLa cells co-expressed ecDHF R- HA-GF P and DsRed from a bicistronic construct.
(C) HeLa cells co-expressed ecDHFR-HA-GFP and DsRed from a bicistronic construct. Target-expressing HeLa cells were
treated with a CANDDY molecule (1).

[6] = biological target: β5/β2/β1 of the proteasome (Homo sapiens, UniProt P28072+P28074+Q99436); experiment: Proteasomal inhibitory activity, stated in words for all subunits; type: biochemical; conditions: listed as TMP-CANDDY_MLN (1)
Experimental: as §1, §2, §3, §4, §5

wild-type KRAS = biological target: T3, wild-type KRAS (Homo sapiens, UniProt P01116); experiment: Wild-type KRAS-HA-GFP degradation in HeLa cells; type: cell-based; conditions: exogenously expressed, flow cytometry and immunoblotting
T3 construct: expressed in transfected cells; host or cells: HeLa cells
T3 sequence (P01116 1-188 isoform P01116-2): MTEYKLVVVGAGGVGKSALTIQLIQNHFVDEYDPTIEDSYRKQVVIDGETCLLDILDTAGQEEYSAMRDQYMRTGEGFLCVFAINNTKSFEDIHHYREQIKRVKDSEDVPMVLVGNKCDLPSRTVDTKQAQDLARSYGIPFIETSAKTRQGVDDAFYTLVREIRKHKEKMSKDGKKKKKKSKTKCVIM
Experimental: (§6) Figure 3 RAS Chemical Knockdown in vitro. (A) Structures of RAS-SOS inhibitor (4), RAS-SOS-NH2 (5), and TUS-007 as a RAS degrader. (B,C) Assessing the binding affinity of TUS-007 to targets KRAS (G12D, G12V, or wild-type) (B) and proteasome β5 (C) using CETSA. Recombinant KRAS or PSMB5 was treated with vehicle, 4, or TUS-007 for 30 min. The mixture was treated with heat and then analyzed via immunoblotting. […] KRAS-HA-GFP and DsRed-expressing HeLa cells were treated and analyzed via immunoblotting. (F) The same procedure was performed as in (D) (mean ± SEM; n = 3) except for 48 h. (G) Ubiquitination-independent proteasomal KRAS G12D degradation. KRAS G12D-HA-GFP and DsRed-expressing HeLa cells were co-treated with TUS-007 and the NAE inhibitor ([…], […]) or PYR-41 (E1 inhibitor, […]) and then analyzed via flow cytometry. […]
(§7) β5 activity β2 activity β1 activity […]
(§8) Figure S3. Proteasomal Inhibitory Activities of TUS-007 and Degradation of KRAS by TUS-007, Related to Figure 3 […]
(§9) Degradation of mutant (G12D and G12V) and wild- type KRAS pr oteins by TUS- 007 was rescued by treatment with the proteasome inhibitor M LN2238 ([…]). […] KRAS G12D-HA-GFP and DsRed-expressing HeLa cells were co-treated with TUS-007 and 17-AAG (HSP90 inhibitor, 2 ∝M), or VER-155008 (HSP70 inhibitor , 2 ∝M) for 24 h and then analyzed by flow cytometry.

KRAS G12V = biological target: T4, KRAS G12V (Homo sapiens, UniProt P01116, G12V); experiment: KRAS G12V-HA-GFP degradation in HeLa cells; type: cell-based; conditions: exogenously expressed, flow cytometry and immunoblotting
T4 construct: expressed in transfected cells; host or cells: HeLa cells
T4 sequence (P01116 1-188 isoform P01116-2 G12V): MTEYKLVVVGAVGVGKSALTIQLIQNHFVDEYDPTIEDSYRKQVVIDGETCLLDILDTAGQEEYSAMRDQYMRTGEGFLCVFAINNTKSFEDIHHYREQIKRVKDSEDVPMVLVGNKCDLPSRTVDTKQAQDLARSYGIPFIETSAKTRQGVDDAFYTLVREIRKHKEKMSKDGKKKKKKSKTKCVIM
Experimental: as §6, §7, §8, §9

KRAS G12D [7] = biological target: T1, KRAS G12D; experiment: KRAS G12D-HA-GFP degradation in HeLa cells; type: cell-based; parameters: expressed in transfected cells; host or cells: HeLa cells; conditions: exogenously expressed, flow cytometry and immunoblotting
Experimental: as §6, §7, §8, §9
Target sequence in this assay (P01116 1-188 isoform P01116-2 G12D): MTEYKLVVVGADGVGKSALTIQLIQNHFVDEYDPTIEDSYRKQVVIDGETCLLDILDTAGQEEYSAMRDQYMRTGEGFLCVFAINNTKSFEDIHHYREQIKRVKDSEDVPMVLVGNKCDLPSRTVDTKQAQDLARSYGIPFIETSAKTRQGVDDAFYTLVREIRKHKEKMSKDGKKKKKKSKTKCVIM

SMILES | IC50 (proteasome β2) | IC50 (proteasome β1) | IC50 (proteasome β5) | target affinity for ecDHFR compared with TMP (CETSA) (ecDHFR [4]) | other results
CC[C@H](C)[C@H](N)C(=O)Nc1ccc2nc(Cc3c[nH]c4ccccc34)[nH]c2c1 [compound 4, reference compound] |  |  |  |  | Kd (KRAS G12D [1]): 190 µM; solubility [2]: low solubility; degradation of KRAS G12D in cell-free system (KRAS G12D [3]): not
CC(C)C[C@H](NC(=O)CNC(=O)c1cc(Cl)ccc1Cl)B(O)O [MLN2238, reference compound] | 8.9 µM | 0.029 µM |  |  | 
COc1cc(Cc2cnc(N)nc2N)cc(OC)c1OCC(=O)NCCCCCCNC(=O)[C@H](CC(C)C)NC(=O)[C@H](Cc1ccccc1)NC(=O)c1cnccn1 [compound 3] | > 160 µM | > 160 µM | > 160 µM | lower | 
CCCC[C@@H](C=O)NC(=O)[C@H](CC(C)C)NC(=O)[C@H](CC(C)C)NC(C)=O [ALLN, reference compound] (Ac-Leu-Leu-[Nle]-aldehyde) | 4.3 µM | 9.8 µM | 1 µM |  | 
CCCC[C@H](NC(=O)[C@H](CC(C)C)NC(=O)[C@H](CC(C)C)NC(C)=O)C(=O)NCCCCCCNC(=O)COc1c(OC)cc(Cc2cnc(N)nc2N)cc1OC [compound 2] | > 160 µM | > 160 µM | 46.2 µM | more efficient | 
COc1cc(Cc2cnc(N)nc2N)cc(OC)c1OCC(=O)NCCCCCCNC(=O)[C@H](CC(C)C)NC(=O)CNC(=O)c1cc(Cl)ccc1Cl [compound 1] | > 160 µM | > 160 µM | > 160 µM | more efficient | ecDHFR degradation (ecDHFR [5]; HeLa cells, 24 h, immunoblotting and flow cytometry (GFP/DsRed)): highest target degradation efficiency; time dependence of ecDHFR degradation (ecDHFR [5]; HeLa cells, flow cytometry): time-dependent ecDHFR degradation; ecDHFR degradation on co-treatment with inhibitors of E1 or E3 (ecDHFR [5]; co-treatment with NAE inhibitor (E3) or PYR-41 (E1), flow cytometry): did not inhibit ecDHFR degradation; proteasomal inhibitory activity (β5, β2, β1) [6]: almost no proteasomal inhibitory activity
CC[C@H](C)[C@H](NC(=O)CCCCCCN)C(=O)Nc1ccc2[nH]c(Cc3c[nH]c4ccccc34)nc2c1 [compound 5] |  |  |  |  | wild-type KRAS degradation in HeLa cells (wild-type KRAS): no degradation; KRAS G12V degradation in HeLa cells (KRAS G12V): no degradation; solubility [2]: low solubility; KRAS G12D degradation in HeLa cells (KRAS G12D [7]): no degradation; degradation of KRAS G12D in cell-free system (KRAS G12D [3]): not
